Results published in patent US8163778B2 (Hoffmann-LA Roche Inc., priority 2007, dated 2012).

target: T1, human liver FBPase (Homo sapiens, UniProt P09467); test: FBPase assay (malachite green phosphate release); assay type: biochemical; settings: recombinant human liver FBPase, 50 μM fructose-1,6-bisphosphate
T1 construct: made in house; host or cells: E. coli
T1 sequence (P09467 2-338 limits assumed): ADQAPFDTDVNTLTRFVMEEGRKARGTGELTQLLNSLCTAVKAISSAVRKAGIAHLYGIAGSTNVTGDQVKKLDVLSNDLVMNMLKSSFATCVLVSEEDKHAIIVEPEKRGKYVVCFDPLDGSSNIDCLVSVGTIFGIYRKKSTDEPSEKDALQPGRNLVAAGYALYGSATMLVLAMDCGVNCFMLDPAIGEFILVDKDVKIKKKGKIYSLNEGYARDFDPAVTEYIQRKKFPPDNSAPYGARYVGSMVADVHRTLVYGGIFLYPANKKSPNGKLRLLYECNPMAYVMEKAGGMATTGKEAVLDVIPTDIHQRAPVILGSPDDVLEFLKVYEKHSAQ
Protocol: The following tests were carried out for evaluating the inhibitory activity of the compounds of the present invention against human liver FBPase (Swissprot Data base reference PO9467, entry F16P_HUMAN).
Human liver FBPase cDNA (NM_000507) was purchased from Origene Technologies, Inc, subcloned in a vector for expression in E. Coli., and sequenced. Recombinant human liver FBPase (hlFBPase) was purified according to the following protocol that uses heat denaturation similarly to that described by El-Maghrabi et al. [El-Maghrabi, M. R. et al. “Isolation of a human liver fructose-1,6-bisphosphatase cDNA and expression of the protein in Escherichia coli.” J Biol Chem 268:9466-9472, 1993.]. Briefly, E. coli cells, transiently expressing very high levels of soluble and active human liver FBPase, were suspended in 20 mM Tris-HCl pH 7.5, 1 mM EDTA, 1 mM DTT and were lysed by French press. The soluble extract was heat denatured at 65° C. for 5 min, and insoluble, denatured proteins were removed by centrifugation. The extract was then applied to a BioRad Macro-Prep High Q column equilibrated with 20 mM Tris-HCl pH 7.5, 1 mM EDTA, 1 mM DTT and the flow-through (containing FBPase activity) was collected and applied to a BioRad Macro-Prep HS column equilibrated with 20 mM HEPES pH 7.2, 1 mM DTT. A gradient of increasing NaCl concentration was then applied to the HS column and fractions were collected. Fractions containing active FBPase were pooled and further purified by size exclusion chromatography on a Sephacryl S200 column equilibrated in 20 mM Tris-HCl pH 7.5, 150 mM NaCl, 1 mM EDTA, 1 mM DTT. Purity of the enzyme preparation was >90% as assessed by Mass spectrometry.
Recombinant human liver FBPase (hlFBPase) activity was assayed through measuring the inorganic phosphate release that results from the hydrolysis of Fructose-1,6-bisphosphate by the enzyme. As described by Baykov A. A. et al. in [Baykov A. A et al., “Malachite Green procedure for orthophosphate determination and its use in alkaline phosphatase-based enzyme immunoassays”. Anal. Biochem., 171:266-270, 1988], inorganic phosphate can be readily quantified by spectrophotometry at 620 nm after complexation with ammonium molybdate/malachite green reagent. Enzymatic reaction was carried out with modifications of the procedure described by Wright S. W. et al. [Wright S. W. et al., “Anilinoquinazoline inhibitors of Fructose-1,6-bisphosphatase bind to a novel allosteric site: synthesis, in vitro characterization, and X-ray crystallography”. J. Med. Chem. 45:3865-3877, 2002]. Specifically, the reaction was carried out in 96 well plates in a final volume of 100 μl in the presence or in the absence of allosteric inhibitors. Reaction was started adding 25 ng of hlFBPase to the reaction mixture containing 50 mM HEPES-KOH buffer pH 7.2, 2 mM MgCl2, 2 mM EDTA, 1 mM DTT, 50 μM fructose-1,6-bisphosphate and 1% DMSO. After 50 minutes incubation at room temperature, the phosphate released was allowed to form a colored complex for 10 min by adding 150 μl of ammonium molybdate/malachite green reagent containing 0.03% malachite green, 0.2% ammonium molybdate, 0.05% Triton X-100 and 0.7 M H2SO4 in water that was stirred for 30 min at room temperature and filtered through 0.2 μm filter. Under these conditions, the assay was linear with time and able to detect FBPase inhibition after spectrophotometric read-out at 620 nm.

Structure (SMILES)	IC50 [nM]
COCCc1sc(S(=O)(=O)NC(=O)Nc2cc(Br)cc(N3CCOCC3)n2)cc1C [Compound 31, N-[(4-Bromo-6-morpholin-4-ylpyridin-2-yl)carbamoyl]-5-(2-methoxyethyl)-4-methylthiophene-2-sulfonamide]	429
COCCc1sc(S(=O)(=O)NC(=O)Nc2cc(SC)cc(N)n2)cc1C [Compound 32, N-{[6-Amino-4-(methylthio)pyridin-2-yl]carbamoyl}-5-(2-methoxyethyl)-4-methylthiophene-2-sulfonamide]	433
Nc1cc(Br)cc(NC(=O)NS(=O)(=O)c2ccc3c(c2)CCO3)n1 [Compound 34, N-[(6-Amino-4-bromopyridin-2-yl)carbamoyl]-2,3-dihydro-1-benzofuran-5-sulfonamide]	481
Nc1cc(Br)cc(NC(=O)NS(=O)(=O)c2ccc3c(c2)OCCO3)n1 [Compound 37, N-[(6-Amino-4-bromopyridin-2-yl)carbamoyl]-2,3-dihydro-1,4-benzodioxine-6-sulfonamide]	574
CNC(=O)Nc1cc(OC)cc(NC(=O)NS(=O)(=O)c2cc(C)c(OCCOC)s2)n1 [Compound 38, 5-(2-Methoxyethoxy)-N-({4-methoxy-6-[(methylcarbamoyl)amino]pyridin-2-yl}carbamoyl)-4-methylthiophene-2-sulfonamide]	582
CCOc1cc(NC(N)=O)nc(NC(=O)NS(=O)(=O)c2cc(C)c(CCOC)s2)c1 [Compound 40, N-{[6-(Carbamoylamino)-4-ethoxypyridin-2-yl]carbamoyl}-5-(2-methoxyethyl)-4-methylthiophene-2-sulfonamide]	631
O=C(Nc1cc(Br)cc(NCC(F)F)n1)NS(=O)(=O)c1cccc(Cl)c1 [Compound 41, N-({4-Bromo-6-[(2,2-difluoroethyl)amino]pyridin-2-yl}carbamoyl)-3-chlorobenzenesulfonamide]	696
COCCc1sc(S(=O)(=O)NC(=O)Nc2cc(SC)cc(NCCF)n2)cc1C [Compound 45, N-({6-[(2-Fluoroethyl)amino]-4-(methylthio)pyridin-2-yl}carbamoyl)-5-(2-methoxyethyl)-4-methylthiophene-2-sulfonamide]	866
O=C(Nc1cc(Br)cc(NCC(F)F)n1)NS(=O)(=O)c1ccc2c(c1)CCO2 [Compound 47, N-({4-Bromo-6-[(2,2-difluoroethyl)amino]pyridin-2-yl}carbamoyl)-2,3-dihydro-1-benzofuran-5-sulfonamide]	1020
COCCc1sc(S(=O)(=O)NC(=O)Nc2cc(SC)cc(NCCO)n2)cc1C [Compound 48, N-({6-[(2-Hydroxyethyl)amino]-4-(methylthio)pyridin-2-yl}carbamoyl)-5-(2-methoxyethyl)-4-methylthiophene-2-sulfonamide]	1020
CNC(=O)Nc1cc(S(C)(=O)=O)cc(NC(=O)NS(=O)(=O)c2cc(C)c(CCOC)s2)n1 [Compound 50, 5-(2-Methoxyethyl)-4-methyl-N-({6-[(methylcarbamoyl)amino]-4-(methylsulfonyl)pyridin-2-yl}carbamoyl)thiophene-2-sulfonamide]	1090
COCCOc1ccc(S(=O)(=O)NC(=O)Nc2cc(Br)cc(NCC(F)F)n2)cc1C [Compound 51, N-({4-Bromo-6-[(2,2-difluoroethyl)amino]pyridin-2-yl}carbamoyl)-4-(2-methoxyethoxy)-3-methylbenzenesulfonamide]	1110
COCCc1sc(S(=O)(=O)NC(=O)Nc2cc(Br)cc(NC(=O)N(C)C)n2)cc1C [Compound 54, N-({4-Bromo-6-[(dimethylcarbamoyl)amino]pyridin-2-yl}carbamoyl)-5-(2-methoxyethyl)-4-methylthiophene-2-sulfonamide]	1520
O=C(Nc1cc(Br)ccn1)NS(=O)(=O)c1cccc(Cl)c1 [Compound 55, N-[(4-Bromopyridin-2-yl)carbamoyl]-3-chlorobenzenesulfonamide]	1550

Other lines, results leading:

IC50 [nM]	Structure (SMILES)
396	Nc1cc(Br)cc(NC(=O)NS(=O)(=O)c2cccc(Cl)c2)n1 [Compound 28, N-[(6-Amino-4-bromopyridin-2-yl)carbamoyl]-3-chlorobenzenesulfonamide]
420	CNC(=O)Nc1cc(OC)cc(NC(=O)NS(=O)(=O)c2csc(COC)c2)n1 [Compound 29, 5-(Methoxymethyl)-N-({4-methoxy-6-[(methylcarbamoyl)amino]pyridin-2-yl}carbamoyl)thiophene-3-sulfonamide]
428	COCCc1sc(S(=O)(=O)NC(=O)Nc2cc(OC)cc(N)n2)cc1C [Compound 30, N-[(6-Amino-4-methoxypyridin-2-yl)carbamoyl]-5-(2-methoxyethyl)-4-methylthiophene-2-sulfonamide]
1660	COCCc1sc(S(=O)(=O)NC(=O)Nc2cc(C(F)(F)F)ccn2)cc1C [Compound 33, 5-(2-Methoxyethyl)-4-methyl-N-{[4-(trifluoromethyl)pyridin-2-yl]carbamoyl}thiophene-2-sulfonamide]
494	CCOc1cc(NC(=O)NC)nc(NC(=O)NS(=O)(=O)c2cc(C)c(CCOC)s2)c1 [Compound 35, N-({4-Ethoxy-6-[(methylcarbamoyl)amino]pyridin-2-yl}carbamoyl)-5-(2-methoxyethyl)-4-methylthiophene-2-sulfonamide]
566	Cc1cccc(S(=O)(=O)NC(=O)Nc2cc(Br)cc(N)n2)c1 [Compound 36, N-[(6-Amino-4-bromopyridin-2-yl)carbamoyl]-3-methylbenzenesulfonamide]
610	Cc1cccc(S(=O)(=O)NC(=O)Nc2cc(Br)cc(NCC(F)F)n2)c1 [Compound 39, N-({4-Bromo-6-[(2,2-difluoroethyl)amino]pyridin-2-yl}carbamoyl)-3-methylbenzenesulfonamide]
760	COCCc1sc(S(=O)(=O)NC(=O)Nc2cc(C(F)(F)F)cc(-c3ccc(C(F)(F)F)cc3)n2)cc1C [Compound 42, 5-(2-Methoxyethyl)-4-methyl-N-({4-(trifluoromethyl)-6-[4-(trifluoromethyl)phenyl]pyridin-2-yl}carbamoyl)thiophene-2-sulfonamide]
834	CSc1cc(N)nc(NC(=O)NS(=O)(=O)c2csc(C)c2)c1 [Compound 43, N-{[6-Amino-4-(methylthio)pyridin-2-yl]carbamoyl}-5-methylthiophene-3-sulfonamide]
937	COCCc1sc(S(=O)(=O)NC(=O)Nc2cc(C)cc(C3CCc4ccccc4C3)n2)cc1C (stereo not drawn) [Compound 46, 5-(2-Methoxyethyl)-4-methyl-N-{[4-methyl-6-(1,2,3,4-tetrahydronaphthalen-2-yl)pyridin-2-yl]carbamoyl}thiophene-2-sulfonamide]
1060	CNC(=O)Nc1cc(OC)cc(NC(=O)NS(=O)(=O)c2cn(C)c3c(OCCOC)cccc23)n1 [Compound 49]
1480	COc1cccc2c(S(=O)(=O)NC(=O)Nc3cc(SC)cc(N)n3)cn(C)c12 [Compound 53, N-{[6-Amino-4-(methylthio)pyridin-2-yl]carbamoyl}-7-methoxy-1-methyl-1H-indole-3-sulfonamide]
1730	COCCc1sc(S(=O)(=O)NC(=O)Nc2cc(C)cc(N3CCc4ccccc4C3)n2)cc1C [Compound 56, N-{[6-(3,4-Dihydroisoquinolin-2(1H)-yl)-4-methylpyridin-2-yl]carbamoyl}-5-(2-methoxyethyl)-4-methylthiophene-2-sulfonamide]
